According to patent US12509439B2, “Anti-malarial agents” (UNIVERSITY OF KENTUCKY RESEARCH FOUNDATION, priority 2020, dated 2025):

Assays:
[1] = PK parameters in rat (IV and PO); type: in vivo; conditions: for PK parameters (rat): F: 1 mg/kg IV and 3 mg/kg PO; for clearance / half-life: Sprague Dawley, plasma, IV arm, 1 mg/kg; for clearance: read-out: PK parameters (rat): Cl; for half-life: read-out: PK parameters (rat): t1/2
Protocol: Swiss Albino male mice or Sprague Dawley rats (TCGLS, India) were kept under a 12/12 h light/dark cycle, 22±2° C. temp, 50±20% RH with free access to food and water ad libitum. Mice were selected randomly/based on body weight/age and fasted for 4 h before dosing and until 2 h after dosing. Three mice were used per route of administration. For IV determination (1 mg/kg, dose volume 5 ml/kg) the dose was administered by injection into the lateral tail vein (rats are anaesthetized using 3% v/v isoflurane: oxygen mixture). For PO determination (3 mg/kg, dose volume 10 ml/kg) the dose was administered by oral gavage in conscious animals.
Blood samples were taken (mice 50 μL, rat 100 μL) at regular timepoints from the saphenous vein (conscious restrained animals) and collected into heparinized capillary tubes and transferred into 0.5 mL microcentrifuge tubes. Samples were processed by centrifugation at 1640 g for 10 min at +4° C. within 30 min of collection and stored at −20° C. until bioanalysis. All samples were mixed with ice-cold acetonitrile containing an internal standard, centrifuged at 4000 rpm for 15 min at 15° C. Supernatant was then half diluted in water and analysed by LCMS/MS analysis to determine analyte peak area/IS peak area (the ratio). Concentration (plasma) of the compounds of the invention was determined by reference to a calibration curve. Pharmacokinetic parameters (Cmax, Tmax, AUC, t1/2, CL, Vd, BA) were calculated using WinNonLin, using non-compartmental analysis (Phoenix, Version 6.3). The pharmacokinetic parameters for compounds shown in Table 2 support that compounds of the invention have pharmacokinetic properties associated with treatment of malaria via the oral route and that compounds have substantially longer half-lives than the reference compound.

[2] = Microsomal intrinsic clearance, mouse liver microsomes; type: in vitro ADME; conditions: mouse liver microsomes (pooled), pH 7.4, 45 min, NADPH
Protocol: (§1) The compounds of the invention (1 μM) were incubated in suspension with human (rat or mouse) liver microsomes pooled from multiple donors (>10) and samples taken at 5 time points over the course of a 45 min experiment and analysed by LC MS/MS. Microsomes (final protein concentration 0.5 mg/mL), 0.1 M phosphate buffer pH 7.4 and test compound (final substrate concentration 1 μM; final DMSO concentration 0.25%) were pre-incubated at 37° C. prior to the addition of NADPH (final concentration 1 mM) to initiate the reaction. A minus cofactor control incubation was included for each compound tested where 0.1 M phosphate buffer pH 7.4 is added instead of NADPH (minus NADPH). All incubations were performed in duplicate for each test compound and the results averaged. Each compound is incubated for 0, 5, 15, 30 and 45 min. The control (minus NADPH) was incubated for 45 min only. The reactions were stopped by transferring incubate into acetonitrile at the appropriate time points, in a 1:3 ratio.
(§2) The termination plates were centrifuged at 3,000 rpm for 20 min at 4° C. to precipitate the protein. Following protein precipitation, the sample supernatants were combined in cassettes of up to 4 compounds, internal standard added and samples analysed by LC-MS/MS. From a plot of ln peak area ratio (compound peak area/internal standard peak area) against time, the gradient of the line is determined. Subsequently, half-life (t½) and intrinsic clearance (CLint) are calculated using the equations below: Elimination rate constant (k)=(−gradient) Half-life (t1/2)(min)=0.693/k Intrinsic clearance (i.e. CLint)(μL/min/mg protein)=V×0.693/t1/2 where V=Incubation volume (μL)/Microsomal protein (mg)
(§3) Verapamil and dextromethorphan were included in the assay as controls and if the values for these compounds were not within the specified limits the results were rejected and the experiment repeated.

[3] = Microsomal intrinsic clearance, human liver microsomes; type: in vitro ADME; conditions: human liver microsomes (pooled), pH 7.4, 45 min, NADPH
Protocol: as §1, §2, §3

[4] = Pharmacokinetic profile in dog (IV); conditions: in vivo; for clearance: read-out: Cl (dog); for half-life: read-out: t½ (dog) (converted)
PfATP-4 = biological target: T1, PfATP-4 (Plasmodium falciparum, UniProt A0A143ZZK9); test: Effect on cytosolic [Na+] in saponin-isolated Plasmodium falciparum (sodium flux assay, SBFI); type: cell-based; conditions: SBFI-loaded 3D7 parasites, compound at 1 μM
T1 construct: Saponin-isolated parasites at a density of 1.4-1.8×10^8 cells/mL; endogenous in cells
From the text: The ability of compounds of the invention to function as inhibitors of the Na+/H+-ATPase, which regulates parasite cytosolic sodium concentration has been tested in the following assay. Their effect on cytosolic sodium can be measured using a sodium flux assay (Biochemical characterization and chemical inhibition of PfATP4-associated Na+-ATPase activity in Plasmodium falciparum membranes. Rosling J. E. O. et al., 2018, J. Biol. Chem., 293: 13397). Saponin-isolated parasites at a density of 1.4-1.8×10^8 cells/mL, were suspended in bicarbonate-free RPMI1640 supplemented with 20 mM D-glucose, 0.2 mM hypoxanthine, 25 mM HEPES and 25 mg/L gentamycin sulfate (pH 7.10), then treated with sodium-binding benzofuran isophthalate acetoxymethyl ester ([…]) and Pluronic F-127 (0.01% w/v) for 20 min at 37° C. The dye-loaded cells were washed twice (12,000 g, 0.5 min) in bicarbonate-free RPMI then incubated for a further 20 min at 37° C. to allow for complete de-esterification of the dye before being resuspended at a final cell concentration of 1.5-2.5×10^7 cells/mL in standard saline. […] [Na+] was determined according to reference to a calibration curve of the 340/380 nm fluorescence ratio as described previously (In situ calibration and [H+] sensitivity of the fluorescent Na+ indicator SBFI. Diarra A. et al., 2001, Am. J. Physiol. Cell Physiol., 280: 1623).

malaria infection = conditions: human volunteers, single dose of 600 milligrams; cited from earlier work
[5] = phase 1a clinical trials; cited from earlier work

T1 sequence (A0A143ZZK9 whole entry): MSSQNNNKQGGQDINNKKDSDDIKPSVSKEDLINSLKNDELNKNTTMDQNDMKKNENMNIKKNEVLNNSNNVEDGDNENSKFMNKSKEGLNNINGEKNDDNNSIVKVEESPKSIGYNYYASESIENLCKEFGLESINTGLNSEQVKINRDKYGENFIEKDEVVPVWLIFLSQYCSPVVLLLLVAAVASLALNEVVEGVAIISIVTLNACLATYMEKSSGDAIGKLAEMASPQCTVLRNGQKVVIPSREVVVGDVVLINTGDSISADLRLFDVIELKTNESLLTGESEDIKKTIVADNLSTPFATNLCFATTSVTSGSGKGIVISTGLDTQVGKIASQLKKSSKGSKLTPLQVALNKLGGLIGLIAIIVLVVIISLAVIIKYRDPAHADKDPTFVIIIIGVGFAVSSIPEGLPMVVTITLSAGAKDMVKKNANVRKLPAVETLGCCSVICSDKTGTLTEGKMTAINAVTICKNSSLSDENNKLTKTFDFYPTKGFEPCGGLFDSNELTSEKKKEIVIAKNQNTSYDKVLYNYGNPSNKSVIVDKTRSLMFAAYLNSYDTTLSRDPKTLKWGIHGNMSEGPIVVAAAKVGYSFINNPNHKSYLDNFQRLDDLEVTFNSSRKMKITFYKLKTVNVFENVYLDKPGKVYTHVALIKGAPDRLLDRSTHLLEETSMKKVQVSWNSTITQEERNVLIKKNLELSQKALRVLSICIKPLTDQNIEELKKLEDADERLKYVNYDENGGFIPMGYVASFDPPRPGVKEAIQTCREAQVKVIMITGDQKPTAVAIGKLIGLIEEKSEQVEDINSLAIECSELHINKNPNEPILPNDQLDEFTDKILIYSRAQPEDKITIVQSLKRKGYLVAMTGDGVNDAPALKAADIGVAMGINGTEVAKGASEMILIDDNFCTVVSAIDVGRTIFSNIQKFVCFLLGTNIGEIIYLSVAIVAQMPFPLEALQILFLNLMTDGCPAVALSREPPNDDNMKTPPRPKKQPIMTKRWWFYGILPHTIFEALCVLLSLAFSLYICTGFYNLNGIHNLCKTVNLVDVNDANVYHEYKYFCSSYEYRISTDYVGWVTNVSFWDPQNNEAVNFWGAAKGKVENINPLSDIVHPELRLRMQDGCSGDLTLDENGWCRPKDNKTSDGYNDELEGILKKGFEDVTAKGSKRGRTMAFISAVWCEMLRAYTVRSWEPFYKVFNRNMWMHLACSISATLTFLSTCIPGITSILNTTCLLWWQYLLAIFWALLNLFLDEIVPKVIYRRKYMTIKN

Row | Structure (SMILES) | PK parameters (rat): F [1] | clearance [1] [mL/min/kg] | half-life [1] [h] | microsomal CLint at 1 μM [2] [µL/min/mg] | microsomal CLint at 1 μM [3] [µL/min/mg] | clearance ([4]; IV at 1 mg/kg) [mL/min/kg] | half-life ([4]; IV at 1 mg/kg) [h] | Effect on cytosolic [Na+] (PfATP-4) | Parasitological cure (malaria infection) | clearance ([4]; IV at dose 3 mg/kg) [mL/min/kg] | half-life ([4]; IV at dose 3 mg/kg) [h] | Metabolite formation in human pharmacokinetic studies [5]
1 | N#Cc1cc(NC(=O)[C@H]2c3ccccc3C(=O)N(CC(F)(F)F)[C@@H]2c2ccc(OC3CC3)nc2)ccc1F (single isomer, unassigned) [(1a)] | F = 107% | 1 | 26 | < 10 | < 3 | 0.26 | 41 | increase of cytosolic sodium concentration |  |  |  | 
2 | N#Cc1cc(NC(=O)[C@H]2c3ccccc3C(=O)N(CC(F)(F)F)[C@@H]2c2cnc(C(F)(F)F)nc2)ccc1F [(9a), (3S,4S)—N-(3-cyano-4-fluorophenyl)-1-oxo-2-(2,2,2-trifluoroethyl)-3-(2-(trifluoromethyl)pyrimidin-5-yl)-1,2,3,4-tetrahydroisoquinoline-4-carboxamide] | F = 65% | 1.33 | 22 | 10.1 | < 3 |  |  | increase of cytosolic sodium concentration |  |  |  | 
3 | N#Cc1cc(NC(=O)[C@H]2c3ccccc3C(=O)N(CC(F)(F)F)[C@@H]2c2cccnc2)ccc1F [(+) SJ-733, 4-Isoquinolinecarboxamide, N-(3-cyano-4-fluorophenyl)-1,2,3,4-tetrahydro-1-oxo-3-(3-pyridinyl)-2-(2,2,2-trifluoroethyl)-, (3S,4S)-, reference compound] | F = 75% | 13.3 | 7.7 | 37 | 140 |  |  |  | parasitological cure was not achieved | 3 | 10 | significant formation of an inactive N-oxide metabolite
